Laboratory results reported in US20230103549A1, “OVERLAPPING THERAPEUTIC STRATEGIES FOR CYSTINOSIS TREATMENT AND COSMETIC SKIN DARKENING” (Whitehead Institute for Biomedical Research, priority 2019, published 2023).

Columns and labels:
[1] = target: T1, plasma membrane-localized MFSD12 (Homo sapiens, UniProt Q6NUT3, DEL167-169/L256A/L257A/Y182H); test: Plasma membrane cellular cysteine uptake assay (MFSD12^PM); format: cell-based; conditions: HEK-293T cells expressing MFSD12^PM; 500 μM cold cysteine for competition
T1 construct: expressed in transfected cells; host or cells: HEK-293T cells transiently transfected with the pRK5-HA-MFSD12 LL253-254AA plasmid (PEI)
T1 sequence (Q6NUT3 with tags, fused parts or gaps DEL167-169/Y182H/L256A/L257A): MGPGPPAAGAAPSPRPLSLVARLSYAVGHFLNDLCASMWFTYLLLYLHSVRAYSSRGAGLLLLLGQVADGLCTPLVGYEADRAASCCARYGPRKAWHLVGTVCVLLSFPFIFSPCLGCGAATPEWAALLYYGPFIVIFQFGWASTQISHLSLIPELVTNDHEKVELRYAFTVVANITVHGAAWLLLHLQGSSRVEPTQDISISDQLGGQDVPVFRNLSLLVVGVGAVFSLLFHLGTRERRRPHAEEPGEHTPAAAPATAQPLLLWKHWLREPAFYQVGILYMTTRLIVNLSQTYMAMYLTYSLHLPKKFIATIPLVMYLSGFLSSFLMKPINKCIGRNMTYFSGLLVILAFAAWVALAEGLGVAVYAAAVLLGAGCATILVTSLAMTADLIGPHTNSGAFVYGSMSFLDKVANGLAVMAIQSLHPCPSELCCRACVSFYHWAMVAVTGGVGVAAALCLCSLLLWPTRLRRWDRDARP
Method: 3 million HEK-293T cells were plated in 10 cm dishes. Cells were transfected with 3 μg of plasmid with PEI (3 μg per 1 μg plasmid) and scraped 48 hours post-transfection into ice cold KPBS. After washing twice, cells were resuspended in LysoBuffer supplemented with 2.5 μM Erastin (MilliporeSigma), 4 mM leucine, and 3 mM serine. Assays were started with the addition of cold cysteine (10 μM for transport conditions and 500 μM for competition) and 50 μCi/mL (<100 pM) [^35S]-cysteine. Samples were incubated at 30° C. and aliquots were taken at indicated time points. Aliquoted cells were harvested by centrifugation at 1,000×g for 30 seconds at 4° C. and washed twice in ice-cold PBS. Cell pellets were resuspended in water before mixing into scintillation fluid and measuring scintillation counts (TriCarb T9000TR, Perkin-Elmer).

[2] = target: T2, MFSD12 (Homo sapiens, UniProt Q6NUT3); test: Cysteine uptake assay into isolated lysosomes; format: biochemical; conditions: 500 μM unlabeled cysteine; lysosomes from HEK-293T cells; 15-minute transport assay
T2 construct: isolate large quantities of lysosomes from wild-type and MFSD12 knock-out HEK-293T cells; endogenous in cells; host or cells: suspension-adapted HEK-293T cells; lysosomes purified by differential and OptiPrep gradient centrifugation
T2 sequence (Q6NUT3 whole entry): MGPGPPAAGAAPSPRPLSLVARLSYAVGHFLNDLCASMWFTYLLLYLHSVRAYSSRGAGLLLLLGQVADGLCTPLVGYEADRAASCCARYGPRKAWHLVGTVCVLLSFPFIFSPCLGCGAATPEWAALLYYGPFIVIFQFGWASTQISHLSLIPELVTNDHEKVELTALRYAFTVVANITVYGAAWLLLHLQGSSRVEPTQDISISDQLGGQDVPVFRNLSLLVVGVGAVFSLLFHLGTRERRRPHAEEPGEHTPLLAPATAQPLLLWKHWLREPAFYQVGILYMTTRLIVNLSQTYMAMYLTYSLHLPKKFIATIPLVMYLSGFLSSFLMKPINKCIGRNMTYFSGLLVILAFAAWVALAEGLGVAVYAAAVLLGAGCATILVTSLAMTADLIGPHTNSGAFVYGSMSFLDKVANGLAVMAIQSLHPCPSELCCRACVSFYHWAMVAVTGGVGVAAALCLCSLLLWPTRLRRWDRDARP
Method: Lysosomal purification protocols were adapted from previous protocols (Graham, 2001). 500 million suspension-adapted HEK-293T cells were spun down, washed in ice-cold PBS, and resuspended in 15 mL homogenization buffer (250 mM sucrose; 20 mM HEPES, pH 7.4; 1 mM EDTA) supplemented with protease inhibitor tablets (Roche). Cells were dounced 10 times in a lose fitting glass dounce and the resulting lysate was centrifuged at 1,500×g for 10 minutes at 4° C. After transferring the supernatant, 15 mL homogenization buffer was used to resuspend the pellet, and douncing and centrifugation were repeated. Supernatants from three successive rounds of homogenization and centrifugation were pooled and centrifuged a final time before transferring ‘post-nuclear supernatant’ to the subsequent step. ‘Post-nuclear supernatant’ was centrifuged at 20,000×g for 10 minutes at 4° C. to pellet organelles. To further wash organelles, the pellet was resuspended in 45 mL homogenization buffer and spun again at 20,000×g for 10 minutes at 4° C. The resulting pellet or ‘light mitochondrial fraction’ was resuspended in 9% OptiPrep (Thermo Fisher) prepared in Dilution Buffer (250 mM sucrose; 40 mM HEPES, pH 7.4; 2 mM EDTA) and overlaid on top of a discontinuous gradient of 18, 16, 14, 12, and 10% OptiPrep prepared in Dilution Buffer. […]

With `N[C@@H](CS)C(=O)O` [cysteine] the “competition of MFSD12-induced [35S]-cysteine transport” value [1] was “completely competed” and the “competition of [35S]-cysteine signal in lysosomes” value [2] was “reduce the [^35S] signal in lysosomes having MFSD12 to the same level as those in lysosomes lacking it”.
